# In US12539292B2, “BRM targeting compounds and associated methods of use” (Arvinas Operations, Inc., priority 2018, dated 2026):
# Biological target: T1, BRM (Homo sapiens, UniProt P51531)
# T1 construct: In-Cell Western Screen of BRM Degradation in SW1573 Cells; endogenous in cells; host or cells: SW1573
# Test: In-cell Western screen of BRM degradation in SW1573 cells (Dmax and DC50)
# Assay type: cell-based
# Conditions: for DC50: BRM degradation, read-out: BRM DC50
# Outline: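 Overnight compound treatment (18-20 h, final DMSO 0.1%) of SW1573 cells in DMEM with 10% FBS precedes fixation and in-cell Western staining with 800/680 nm dye-labelled secondaries. Plate images give DC50 and maximal degradation.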
# [1] = % degraded, when tested at the top concentration of between 0.3 and 10 μM
# T1 sequence (P51531 whole entry): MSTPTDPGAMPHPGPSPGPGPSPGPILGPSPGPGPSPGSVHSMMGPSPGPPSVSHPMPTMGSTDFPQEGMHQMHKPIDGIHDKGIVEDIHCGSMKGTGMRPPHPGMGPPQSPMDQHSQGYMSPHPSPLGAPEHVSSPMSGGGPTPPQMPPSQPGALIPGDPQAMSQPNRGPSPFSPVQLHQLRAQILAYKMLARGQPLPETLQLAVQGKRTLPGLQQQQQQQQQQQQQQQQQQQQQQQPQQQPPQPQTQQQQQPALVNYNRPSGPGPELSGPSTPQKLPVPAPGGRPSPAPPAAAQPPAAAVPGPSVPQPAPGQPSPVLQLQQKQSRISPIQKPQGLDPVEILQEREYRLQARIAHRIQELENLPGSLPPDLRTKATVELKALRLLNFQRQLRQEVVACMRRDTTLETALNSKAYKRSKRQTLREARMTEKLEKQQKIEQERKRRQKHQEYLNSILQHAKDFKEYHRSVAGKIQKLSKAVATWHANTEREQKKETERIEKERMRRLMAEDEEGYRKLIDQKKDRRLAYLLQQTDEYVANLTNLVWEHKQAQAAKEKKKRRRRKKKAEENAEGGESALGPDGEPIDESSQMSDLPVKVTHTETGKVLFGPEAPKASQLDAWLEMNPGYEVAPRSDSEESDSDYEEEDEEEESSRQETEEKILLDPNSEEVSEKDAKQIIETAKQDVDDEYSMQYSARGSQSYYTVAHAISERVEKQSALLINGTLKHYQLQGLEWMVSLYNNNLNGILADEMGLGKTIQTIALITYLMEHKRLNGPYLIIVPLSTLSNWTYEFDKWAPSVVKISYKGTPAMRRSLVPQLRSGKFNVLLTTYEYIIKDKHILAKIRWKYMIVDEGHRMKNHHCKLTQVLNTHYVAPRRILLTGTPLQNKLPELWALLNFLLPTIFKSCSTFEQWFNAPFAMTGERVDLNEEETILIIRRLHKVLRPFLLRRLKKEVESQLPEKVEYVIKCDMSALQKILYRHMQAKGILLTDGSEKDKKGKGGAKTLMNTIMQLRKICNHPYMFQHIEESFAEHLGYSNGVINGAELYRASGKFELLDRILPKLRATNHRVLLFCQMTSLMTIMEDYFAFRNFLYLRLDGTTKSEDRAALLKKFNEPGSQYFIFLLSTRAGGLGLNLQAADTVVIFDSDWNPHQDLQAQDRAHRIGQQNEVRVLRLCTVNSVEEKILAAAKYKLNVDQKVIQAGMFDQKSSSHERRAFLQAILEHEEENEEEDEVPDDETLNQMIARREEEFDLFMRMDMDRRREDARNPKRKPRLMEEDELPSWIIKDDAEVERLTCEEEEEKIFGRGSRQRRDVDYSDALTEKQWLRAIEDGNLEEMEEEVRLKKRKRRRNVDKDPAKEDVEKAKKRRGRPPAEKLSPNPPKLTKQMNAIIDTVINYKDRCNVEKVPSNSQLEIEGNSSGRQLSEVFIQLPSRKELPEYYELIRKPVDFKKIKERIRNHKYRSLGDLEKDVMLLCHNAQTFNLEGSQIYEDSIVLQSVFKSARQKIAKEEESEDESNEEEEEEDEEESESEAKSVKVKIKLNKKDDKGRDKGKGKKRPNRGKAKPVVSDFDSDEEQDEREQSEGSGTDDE
DC50 [nM],SMILES,BRM Dmax (%) [1],"Dmax (SW1573, % degraded, when tested at the top concentration of between 0.3 and 10 μM, read-out: BRM Dmax (%)) [%]"
> 30,"Cc1ncsc1-c1ccc([C@H](C)NC(=O)[C@@H]2C[C@@H](O)CN2C(=O)[C@@H](c2cc(OCCC3CCN(CCOc4cc(N5C6CCC5CN(c5cc(-c7ccccc7O)nnc5N)C6)ccn4)CC3)no2)C(C)C)cc1 [compound 511, (2S,4R)-1-((2R)-2-(3-(2-(1-(2-((4-(3-(3-amino-6-(2-hydroxyphenyl)pyridazin-4-yl)-3,8-diazabicyclo[3.2.1]octan-8-yl)pyridin-2-yl)oxy)ethyl)piperidin-4-yl)ethoxy)isoxazol-5-yl)-3-methylbutanoyl)-4-hydroxy-N-((S)-1-(4-(4-methylthiazol-5-yl)phenyl)ethyl)pyrrolidine-2-carboxamide]",–,–
> 30,"Cc1cc([C@@H](C(=O)N2C[C@H](O)C[C@H]2C(=O)N[C@@H](C)c2ccc(-c3scnc3C)cc2)[C@H](C)COCCOc2cc(N3C4CCC3CN(c3cc(-c5ccccc5O)nnc3N)C4)ccn2)on1 [compound 513, (2S,4R)-1-((2S,3S)-4-(2-((4-(3-(3-amino-6-(2-hydroxyphenyl)pyridazin-4-yl)-3,8-diazabicyclo[3.2.1]octan-8-yl)pyridin-2-yl)oxy)ethoxy)-3-methyl-2-(3-methylisoxazol-5-yl)butanoyl)-4-hydroxy-N-((S)-1-(4-(4-methylthiazol-5-yl)phenyl)ethyl)pyrrolidine-2-carboxamide]",–,–
> 30,"Cc1cc([C@H](C(=O)N2C[C@H](O)C[C@H]2C(=O)N[C@@H](C)c2ccc(-c3scnc3C)cc2)[C@H](C)COCCOc2cc(N3C4CCC3CN(c3cc(-c5ccccc5O)nnc3N)C4)ccn2)on1 [compound 514, (2S,4R)-1-((2R,3S)-4-(2-((4-(3-(3-amino-6-(2-hydroxyphenyl)pyridazin-4-yl)-3,8-diazabicyclo[3.2.1]octan-8-yl)pyridin-2-yl)oxy)ethoxy)-3-methyl-2-(3-methylisoxazol-5-yl)butanoyl)-4-hydroxy-N-((S)-1-(4-(4-methylthiazol-5-yl)phenyl)ethyl)pyrrolidine-2-carboxamide]",–,–
> 30,Cc1ncsc1-c1ccc([C@H](C)NC(=O)[C@@H]2C[C@@H](O)CN2C(=O)[C@@H](c2cc(OCCN3CCC(O[C@H]4C[C@H](Oc5cc(N6C7CCC6CN(c6ccnc8nc(-c9ccccc9O)cn68)C7)ccn5)C4)CC3)no2)C(C)C)cc1 [compound 515],–,–
> 30,Cc1ncsc1-c1ccc([C@H](C)NC(=O)[C@@H]2C[C@@H](O)CN2C(=O)[C@@H](c2cc(OCCN3CCC(O[C@H]4C[C@H](Oc5cc(N6C7CCC6CN(c6cc(N)nc8nc(-c9ccccc9O)cn68)C7)ccn5)C4)CC3)no2)C(C)C)cc1 [compound 516],–,–
> 30,"Cc1ncsc1-c1ccc([C@H](C)NC(=O)[C@@H]2C[C@@H](O)CN2C(=O)[C@H](c2cc(N3CC(CN4CC(COc5cc(N6C7CCC6CN(c6cc(-c8ccccc8O)nnc6N)C7)ccn5)C4)C3)no2)C(C)C)cc1 [compound 518, (2S,4R)-1-((2S)-2-(3-(3-((3-(((4-(3-(3-amino-6-(2-hydroxyphenyl)pyridazin-4-yl)-3,8-diazabicyclo[3.2.1]octan-8-yl)pyridin-2-yl)oxy)methyl)azetidin-1-yl)methyl)azetidin-1-yl)isoxazol-5-yl)-3-methylbutanoyl)-4-hydroxy-N-((S)-1-(4-(4-methylthiazol-5-yl)phenyl)ethyl)pyrrolidine-2-carboxamide]",–,–
> 30,"Cc1ncsc1-c1ccc([C@H](C)NC(=O)[C@@H]2C[C@@H](O)CN2C(=O)[C@@H](c2cc(N3CC(CN4CC(COc5cc(N6C7CCC6CN(c6cc(-c8ccccc8O)nnc6N)C7)ccn5)C4)C3)no2)C(C)C)cc1 [compound 519, (2S,4R)-1-((2R)-2-(3-(3-((3-(((4-(3-(3-amino-6-(2-hydroxyphenyl)pyridazin-4-yl)-3,8-diazabicyclo[3.2.1]octan-8-yl)pyridin-2-yl)oxy)methyl)azetidin-1-yl)methyl)azetidin-1-yl)isoxazol-5-yl)-3-methylbutanoyl)-4-hydroxy-N-((S)-1-(4-(4-methylthiazol-5-yl)phenyl)ethyl)pyrrolidine-2-carboxamide]",–,–

SMILES,DC50 [nM],BRM Dmax (%) [1],"Dmax (SW1573, % degraded, when tested at the top concentration of between 0.3 and 10 μM, read-out: BRM Dmax (%)) [%]"
"Cc1ncsc1-c1ccc([C@H](C)NC(=O)[C@@H]2C[C@@H](O)CN2C(=O)[C@@H](NC(=O)CN2CCC(CN3CCC(OC4CC(Oc5cc(N6C7CC[C@@H]6CN(c6cc(-c8ccccc8O)nnc6N)C7)ccn5)C4)CC3)CC2)C(C)(C)C)cc1 (stereo partly drawn) [compound 512, (2S,4R)-1-((2S)-2-(2-(4-((4-((1r,3r)-3-((4-(3-(3-amino-6-(2-hydroxyphenyl)pyridazin-4-yl)-3,8-diazabicyclo[3.2.1]octan-8-yl)pyridin-2-yl)oxy)cyclobutoxy)piperidin-1-yl)methyl)piperidin-1-yl)acetamido)-3,3-dimethylbutanoyl)-4-hydroxy-N-((S)-1-(4-(4-methylthiazol-5-yl)phenyl)ethyl)pyrrolidine-2-carboxamide]",< 2.5,A (A > 75),–
"Cc1ncsc1-c1ccc([C@H](C)NC(=O)[C@@H]2C[C@@H](OP(=O)(O)O)CN2C(=O)[C@@H](c2cc(OCCN3CCC(O[C@H]4C[C@H](Oc5cc(N6C7CCC6CN(c6cc(-c8ccccc8OP(=O)(O)O)nnc6N)C7)ccn5)C4)CC3)no2)C(C)C)cc1 [compound 517, (3R,5S)-1-((2R)-2-(3-(2-(4-((1r,3R)-3-((4-(3-(3-amino-6-(2-(phosphonooxy)phenyl)pyridazin-4-yl)-3,8-diazabicyclo[3.2.1]octan-8-yl)pyridin-2-yl)oxy)cyclobutoxy)piperidin-1-yl)ethoxy)isoxazol-5-yl)-3-methylbutanoyl)-5-(((S)-1-(4-(4-methylthiazol-5-yl)phenyl)ethyl)carbamoyl)pyrrolidin-3-yl dihydrogen phosphate]",< 2.5,–,> 75
"Cc1ncsc1-c1ccc([C@H](C)NC(=O)[C@@H]2C[C@@H](O)CN2C(=O)[C@@H](NC(=O)CN2CCC(OC3CC(Oc4cc(N5C6CC[C@@H]5CN(c5cc(-c7ccccc7O)nnc5N)C6)ccn4)C3)CC2)C(C)(C)C)cc1 (stereo partly drawn) [compound 520, (2S,4R)-1-((2S)-2-(2-(4-((1r,3S)-3-((4-(3-(3-amino-6-(2-hydroxyphenyl)pyridazin-4-yl)-3,8-diazabicyclo[3.2.1]octan-8-yl)pyridin-2-yl)oxy)cyclobutoxy)pipcridin-1-yl)acetamido)-3,3-dimethylbutanoyl)-4-hydroxy-N-((S)-1-(4-(4-methylthiazol-5-yl)phenyl)ethyl)pyrrolidine-2-carboxamide]",< 2.5,A (A > 75),–
"Cc1ncsc1-c1ccc([C@H](C)NC(=O)[C@@H]2C[C@@H](O)CN2C(=O)[C@H](c2cc(N3CCN(CC#Cc4ncc(O[C@H]5C[C@H](Oc6cc(N7C8CCC7CN(c7cc(-c9ccccc9O)nnc7N)C8)ccn6)C5)cn4)CC3)no2)C(C)C)cc1 [compound 521, (2S,4R)-1-((2S)-2-(3-(4-(3-(5-((1r,3r)-3-((4-(3-(3-amino-6-(2-hydroxyphenyl)pyridazin-4-yl)-3,8-diazabicyclo[3.2.1]octan-8-yl)pyridin-2-yl)oxy)cyclobutoxy)pyrimidin-2-yl)prop-2-yn-1-yl)piperazin-1-yl)isoxazol-5-yl)-3-methylbutanoyl)-4-hydroxy-N-((S)-1-(4-(4-methylthiazol-5-yl)phenyl)ethyl)pyrrolidine-2-carboxamide]",> 30,–,–
